From ChEMBL document CHEMBL5653631, “A Potent and Selective ULK1 Inhibitor Suppresses Autophagy and Sensitizes Cancer Cells to Nutrient Stress” (iScience, 2018)

Key:
[1] = biological target: T1, Serine/threonine-protein kinase TAO3 (Homo sapiens) (UniProt Q9H2K8); test: Inhibition of human recombinant TAO3 at 40 nM related to control ULK1
T1 sequence (whole entry): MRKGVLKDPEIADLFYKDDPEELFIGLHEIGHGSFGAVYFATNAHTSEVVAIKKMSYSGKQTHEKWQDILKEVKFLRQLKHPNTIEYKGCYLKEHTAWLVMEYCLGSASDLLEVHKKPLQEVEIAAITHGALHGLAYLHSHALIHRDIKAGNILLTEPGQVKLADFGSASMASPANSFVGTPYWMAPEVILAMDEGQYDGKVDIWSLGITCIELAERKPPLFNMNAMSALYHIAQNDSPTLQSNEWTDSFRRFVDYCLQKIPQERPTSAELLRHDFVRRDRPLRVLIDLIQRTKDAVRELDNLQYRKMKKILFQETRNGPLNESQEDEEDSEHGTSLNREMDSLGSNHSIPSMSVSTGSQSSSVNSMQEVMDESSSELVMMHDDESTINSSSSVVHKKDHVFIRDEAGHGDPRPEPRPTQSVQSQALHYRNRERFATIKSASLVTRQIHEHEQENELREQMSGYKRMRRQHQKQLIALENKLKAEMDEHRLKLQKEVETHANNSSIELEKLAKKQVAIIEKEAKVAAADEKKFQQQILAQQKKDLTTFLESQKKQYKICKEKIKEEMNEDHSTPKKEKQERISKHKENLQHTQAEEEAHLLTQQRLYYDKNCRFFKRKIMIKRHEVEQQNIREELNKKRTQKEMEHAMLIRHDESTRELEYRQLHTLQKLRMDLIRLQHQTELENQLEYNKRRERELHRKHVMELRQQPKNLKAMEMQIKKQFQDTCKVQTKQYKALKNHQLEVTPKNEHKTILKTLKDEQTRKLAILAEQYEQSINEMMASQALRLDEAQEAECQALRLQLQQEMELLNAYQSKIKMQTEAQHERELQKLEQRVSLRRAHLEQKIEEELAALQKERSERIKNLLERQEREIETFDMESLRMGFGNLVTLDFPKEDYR

[2] = biological target: T2, Inhibitor of nuclear factor kappa-B kinase subunit alpha (Homo sapiens) (UniProt O15111); test: Inhibition of human recombinant IKKa at 40 nM related to control ULK1
T2 sequence (whole entry): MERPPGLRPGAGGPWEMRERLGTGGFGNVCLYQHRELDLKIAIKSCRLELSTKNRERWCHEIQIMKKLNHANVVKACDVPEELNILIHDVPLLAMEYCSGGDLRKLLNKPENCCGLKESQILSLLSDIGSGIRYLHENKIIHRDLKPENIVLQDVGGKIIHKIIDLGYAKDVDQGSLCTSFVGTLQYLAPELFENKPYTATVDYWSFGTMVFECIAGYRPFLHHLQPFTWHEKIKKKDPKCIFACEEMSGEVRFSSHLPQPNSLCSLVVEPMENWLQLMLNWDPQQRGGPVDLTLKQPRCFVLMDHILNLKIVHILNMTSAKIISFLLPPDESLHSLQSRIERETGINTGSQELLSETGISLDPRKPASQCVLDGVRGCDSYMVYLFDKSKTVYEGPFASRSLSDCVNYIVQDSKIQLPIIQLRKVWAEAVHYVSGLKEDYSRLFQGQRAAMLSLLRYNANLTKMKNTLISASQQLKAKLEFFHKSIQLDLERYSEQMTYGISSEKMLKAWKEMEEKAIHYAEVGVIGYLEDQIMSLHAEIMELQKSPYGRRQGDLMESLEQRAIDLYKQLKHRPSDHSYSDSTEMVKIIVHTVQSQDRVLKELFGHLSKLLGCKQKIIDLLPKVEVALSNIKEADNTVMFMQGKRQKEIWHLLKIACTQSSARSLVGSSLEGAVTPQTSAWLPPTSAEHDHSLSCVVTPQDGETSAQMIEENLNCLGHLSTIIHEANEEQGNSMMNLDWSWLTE

[3] = biological target: T3, Homeodomain-interacting protein kinase 4 (Homo sapiens) (UniProt Q8NE63); test: Inhibition of human recombinant HIPK4 at 40 nM in presence of ATP by radiometric assay relative to control
T3 sequence (whole entry): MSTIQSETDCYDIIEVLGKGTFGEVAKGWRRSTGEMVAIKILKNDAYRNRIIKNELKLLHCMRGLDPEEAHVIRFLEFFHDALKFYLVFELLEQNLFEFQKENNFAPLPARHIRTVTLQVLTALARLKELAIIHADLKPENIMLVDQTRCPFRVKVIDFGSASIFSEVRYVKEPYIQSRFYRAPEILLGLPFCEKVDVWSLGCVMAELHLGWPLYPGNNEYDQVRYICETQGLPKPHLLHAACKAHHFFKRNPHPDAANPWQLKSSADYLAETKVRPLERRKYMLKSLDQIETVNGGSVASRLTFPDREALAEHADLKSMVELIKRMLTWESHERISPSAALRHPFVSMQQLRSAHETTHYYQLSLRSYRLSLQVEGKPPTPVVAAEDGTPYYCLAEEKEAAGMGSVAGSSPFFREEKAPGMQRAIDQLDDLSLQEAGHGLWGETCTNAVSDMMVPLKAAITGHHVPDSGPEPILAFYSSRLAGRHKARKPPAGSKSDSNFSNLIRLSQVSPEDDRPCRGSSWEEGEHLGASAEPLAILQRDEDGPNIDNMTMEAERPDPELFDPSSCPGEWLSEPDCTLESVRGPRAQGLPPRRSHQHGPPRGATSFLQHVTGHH

[4] = biological target: Protein kinase C delta type (Homo sapiens) (UniProt Q05655); test: Inhibition of human recombinant PKCd at 500 nM in presence of ATP by radiometric assay relative to control
Chain of Protein kinase C delta type (Homo sapiens) (Q05655 whole entry, looked up): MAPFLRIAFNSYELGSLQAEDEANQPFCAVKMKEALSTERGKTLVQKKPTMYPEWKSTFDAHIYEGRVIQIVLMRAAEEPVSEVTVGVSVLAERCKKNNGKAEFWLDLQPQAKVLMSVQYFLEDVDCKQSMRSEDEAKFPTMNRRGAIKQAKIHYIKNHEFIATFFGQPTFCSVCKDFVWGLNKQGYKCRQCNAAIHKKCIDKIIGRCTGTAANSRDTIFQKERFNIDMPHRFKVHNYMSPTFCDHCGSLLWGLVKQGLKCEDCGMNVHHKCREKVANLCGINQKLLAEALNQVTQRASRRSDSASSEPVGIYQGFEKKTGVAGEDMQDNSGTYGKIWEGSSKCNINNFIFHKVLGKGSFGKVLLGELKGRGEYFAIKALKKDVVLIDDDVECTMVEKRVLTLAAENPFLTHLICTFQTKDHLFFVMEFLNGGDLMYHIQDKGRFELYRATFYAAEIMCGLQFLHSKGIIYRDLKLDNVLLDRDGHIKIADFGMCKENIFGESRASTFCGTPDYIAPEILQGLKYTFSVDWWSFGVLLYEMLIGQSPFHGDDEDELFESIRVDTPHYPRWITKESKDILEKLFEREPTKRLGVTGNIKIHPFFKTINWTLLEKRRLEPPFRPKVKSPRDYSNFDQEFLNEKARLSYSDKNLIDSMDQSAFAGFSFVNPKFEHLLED

[5] = biological target: Tyrosine-protein kinase Fer (Homo sapiens) (UniProt P16591); test: Inhibition of human recombinant FER at 500 nM in presence of ATP by radiometric assay relative to control
Chain of Tyrosine-protein kinase Fer (Homo sapiens) (P16591 whole entry, looked up): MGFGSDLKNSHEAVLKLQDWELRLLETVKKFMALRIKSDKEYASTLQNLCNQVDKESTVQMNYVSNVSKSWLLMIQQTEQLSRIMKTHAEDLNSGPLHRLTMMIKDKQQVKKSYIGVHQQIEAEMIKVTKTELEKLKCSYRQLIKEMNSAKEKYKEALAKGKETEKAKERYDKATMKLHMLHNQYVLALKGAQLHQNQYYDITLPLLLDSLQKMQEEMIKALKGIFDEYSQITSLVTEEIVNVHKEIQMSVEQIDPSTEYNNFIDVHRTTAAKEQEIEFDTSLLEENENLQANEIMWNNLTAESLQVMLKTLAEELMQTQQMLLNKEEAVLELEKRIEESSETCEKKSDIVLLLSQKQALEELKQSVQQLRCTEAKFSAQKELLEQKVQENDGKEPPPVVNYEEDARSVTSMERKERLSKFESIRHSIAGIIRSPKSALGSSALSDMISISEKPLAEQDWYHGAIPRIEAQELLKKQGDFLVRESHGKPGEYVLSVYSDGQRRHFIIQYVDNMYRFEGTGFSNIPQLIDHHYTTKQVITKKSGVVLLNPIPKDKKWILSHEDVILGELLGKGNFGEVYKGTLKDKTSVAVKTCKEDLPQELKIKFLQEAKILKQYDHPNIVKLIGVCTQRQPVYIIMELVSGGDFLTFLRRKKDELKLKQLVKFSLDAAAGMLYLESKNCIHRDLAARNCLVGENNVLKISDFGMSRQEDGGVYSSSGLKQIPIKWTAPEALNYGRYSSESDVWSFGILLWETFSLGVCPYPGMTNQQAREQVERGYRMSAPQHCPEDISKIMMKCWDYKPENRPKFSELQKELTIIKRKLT

[6] = species: Homo sapiens; test: Inhibition of human recombinant ABL at 15 nM related to control ULK1

In the case of O=C(N[C@@H](C1CC1)C(F)(F)F)c1cc(-c2cnn3cc(-c4ccc(F)cc4)cnc23)cs1, the fold change (FC) [1] is reported as 0, the fold change (FC) [2] is reported as 0 and the inhibition [3] is reported as 0%.
CNC(=O)c1ccccc1Oc1nc(Nc2cc(OC)c(OC)c(OC)c2)ncc1Br was tested, and the inhibition [4] was 3% and the inhibition [5] was 0%.
Molecule CC(C)[C@H](NC(=O)c1cc(-c2cnn3cc(-c4ccc(OCCN5CCCCC5)cc4)cnc23)cs1)C(F)(F)F has a fold change (FC) [6] of 0.93.
